Test results taken from US10745401B2, “Condensed lactam derivative” (Sumitomo Dainippon Pharma Co., Ltd., priority 2018, dated 2020).

Tests used:
human 5-HT2A receptor [1] = biological target: T1, human 5-HT2A receptor (Homo sapiens (Human), UniProt P28223); test: Test 1: binding activity for human 5-HT2A receptor ([3H]Ketanserin, CHO cell membrane fraction)
Protocol: Test 1: Evaluation of Binding Activity for Human 5-HT1A Receptor, Human 5-HT2A Receptor, and Human D2 Receptor
Binding affinity of the present compound for human 5-HT1A receptor, human 5-HT2A receptor, and human D2 receptor was measured by the following procedures.
Each mixture was incubated at room temperature for 60 minutes. Then, the mixture was added quickly on a glassfiber filter plate (Multiscreen FB, Millipore, Inc.) coated with 0.3% aqueous polyethylenimine, and vacuum-filtered. Radioactivity remaining on the filter was measured with a liquid scintillation counter (PerkinElmer, Inc.). Binding inhibition rate was calculated from the following formula.
Ki of each compound was calculated from the following formula. Binding inhibition constant (Ki)=IC50/(1+S/Kd) wherein S is concentration of ligand; Kd is a binding dissociation constant of ligand to membrane, which is calculated from a saturated binding experiment conducted with the same cell membrane. A small Ki value means strong binding ability to a receptor.

human 5-HT1A receptor [2] = biological target: T2, human 5-HT1A receptor (Homo sapiens (Human), UniProt P08908); test: Test 1: binding activity for human 5-HT1A receptor ([3H]8-OH-DPAT, CHO cell membrane fraction)
T2 sequence (P08908 whole entry): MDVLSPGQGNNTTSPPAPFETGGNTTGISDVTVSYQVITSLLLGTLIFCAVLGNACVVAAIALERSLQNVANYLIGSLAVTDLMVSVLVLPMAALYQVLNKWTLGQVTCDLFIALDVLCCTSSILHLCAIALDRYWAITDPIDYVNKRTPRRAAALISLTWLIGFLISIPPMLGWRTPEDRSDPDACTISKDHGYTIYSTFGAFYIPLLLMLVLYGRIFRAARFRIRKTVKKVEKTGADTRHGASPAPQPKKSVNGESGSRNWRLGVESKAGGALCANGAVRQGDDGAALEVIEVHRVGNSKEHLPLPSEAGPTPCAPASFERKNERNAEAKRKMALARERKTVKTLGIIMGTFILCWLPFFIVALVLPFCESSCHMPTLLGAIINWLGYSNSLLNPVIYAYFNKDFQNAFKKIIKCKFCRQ
Outline: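 Membranes incubated with [3H]8-OH-DPAT and compound for 60 min at room temperature, then filtered on polyethylenimine-coated glass-fibre plates and counted by liquid scintillation. IC50 from Hill analysis; Ki = IC50/(1+S/Kd), Kd from saturation binding on the same membranes.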

human D2 receptor = human D2 receptor (Homo sapiens (Human), UniProt P14416); test: Test 1: binding activity for human D2 receptor ([3H]Spiperone, CHO cell membrane fraction); conditions: for Ki: human D2 receptor, [3H]Spiperone; for D2 Ki/5-HT1A Ki / D2 Ki/5-HT2A Ki: selectivity ratio
Sequence of human D2 receptor (P14416 whole entry): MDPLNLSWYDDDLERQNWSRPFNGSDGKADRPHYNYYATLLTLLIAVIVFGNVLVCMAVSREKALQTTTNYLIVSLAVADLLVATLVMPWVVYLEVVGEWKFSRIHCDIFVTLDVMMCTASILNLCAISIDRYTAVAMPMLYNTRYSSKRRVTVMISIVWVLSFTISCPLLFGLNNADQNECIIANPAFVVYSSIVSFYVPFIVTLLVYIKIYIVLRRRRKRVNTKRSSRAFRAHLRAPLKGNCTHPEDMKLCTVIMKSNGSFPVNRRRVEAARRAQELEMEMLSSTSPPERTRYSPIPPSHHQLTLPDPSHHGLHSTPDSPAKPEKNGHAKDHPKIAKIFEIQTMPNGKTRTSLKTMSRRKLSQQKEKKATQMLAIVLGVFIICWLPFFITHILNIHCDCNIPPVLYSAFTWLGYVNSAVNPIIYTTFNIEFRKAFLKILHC
Outline: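 Compound displacement of [3H]ketanserin at 5-HT2A or [3H]spiperone at D2 was measured in CHO membrane fractions after 60 min at room temperature, with filtration and scintillation counting. IC50 was converted to Ki by Cheng–Prusoff using ligand concentration and Kd from saturation binding.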

human 5-HT1A receptor [3] = biological target: T2, human 5-HT1A receptor; test: Test 2: agonist activity for human 5-HT1A receptor ([35S]GTPγS binding); format: biochemical; conditions: for EC50: [35S]GTPγS binding, concentration at which half the activity of Emax was obtained; for Emax at 10 µM: agonist activity in the presence of 10 μM of compound, relative to 100 μmol/L 5-HT
Outline: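 [35S]GTPγS binding read-out: after 60 min at room temperature with test compound in GDP buffer, human 5-HT1A receptor CHO membranes were vacuum-filtered and retained radioactivity scintillation-counted. Agonist activity calculated by formula.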

human 5-HT2A receptor [4] = biological target: T1, human 5-HT2A receptor; test: Test 3: antagonist activity for human 5-HT2A receptor (aequorin luminescence, CHO-K1 cells); format: cell-based; conditions: for IC50: CHO-K1 cells, 1 nmol/L 5-HT
Protocol: Test 3: Evaluation of Antagonist Activity for Human 5-HT2A Receptor
Aequorin, Gα16 protein, and each receptor were transiently expressed in CHO-K1 cells (Chinese hamster ovary). […] Each compound dissolved in DMSO was added thereto, and changes in luminescence were measured by FDSS/μCELL functional drug screening system (Hamamatsu Photonics K.K.). Antagonist activity was calculated from the following formula. Antagonist activity (%)=100×{(Luminescence of well in the presence of 1 nmol/L 5-HT−Luminescence of well containing solvent)−(Luminescence of well in the presence of test compound and 1 nmol/L 5-HT−Luminescence of well containing solvent)}/(Luminescence of well in the presence of 1 nmol/L 5-HT−Luminescence of well containing solvent)

hERG channel = hERG channel (Homo sapiens (Human), UniProt Q12809); test: Test 6-1: inhibitory activity for hERG channel (auto patch clamp, Qpatch); format: cell-based; conditions: for IC50: whole cell auto patch clamp, hERG-CHO cells, read-out: hERG inhibition IC50
Sequence of hERG channel (Q12809 whole entry): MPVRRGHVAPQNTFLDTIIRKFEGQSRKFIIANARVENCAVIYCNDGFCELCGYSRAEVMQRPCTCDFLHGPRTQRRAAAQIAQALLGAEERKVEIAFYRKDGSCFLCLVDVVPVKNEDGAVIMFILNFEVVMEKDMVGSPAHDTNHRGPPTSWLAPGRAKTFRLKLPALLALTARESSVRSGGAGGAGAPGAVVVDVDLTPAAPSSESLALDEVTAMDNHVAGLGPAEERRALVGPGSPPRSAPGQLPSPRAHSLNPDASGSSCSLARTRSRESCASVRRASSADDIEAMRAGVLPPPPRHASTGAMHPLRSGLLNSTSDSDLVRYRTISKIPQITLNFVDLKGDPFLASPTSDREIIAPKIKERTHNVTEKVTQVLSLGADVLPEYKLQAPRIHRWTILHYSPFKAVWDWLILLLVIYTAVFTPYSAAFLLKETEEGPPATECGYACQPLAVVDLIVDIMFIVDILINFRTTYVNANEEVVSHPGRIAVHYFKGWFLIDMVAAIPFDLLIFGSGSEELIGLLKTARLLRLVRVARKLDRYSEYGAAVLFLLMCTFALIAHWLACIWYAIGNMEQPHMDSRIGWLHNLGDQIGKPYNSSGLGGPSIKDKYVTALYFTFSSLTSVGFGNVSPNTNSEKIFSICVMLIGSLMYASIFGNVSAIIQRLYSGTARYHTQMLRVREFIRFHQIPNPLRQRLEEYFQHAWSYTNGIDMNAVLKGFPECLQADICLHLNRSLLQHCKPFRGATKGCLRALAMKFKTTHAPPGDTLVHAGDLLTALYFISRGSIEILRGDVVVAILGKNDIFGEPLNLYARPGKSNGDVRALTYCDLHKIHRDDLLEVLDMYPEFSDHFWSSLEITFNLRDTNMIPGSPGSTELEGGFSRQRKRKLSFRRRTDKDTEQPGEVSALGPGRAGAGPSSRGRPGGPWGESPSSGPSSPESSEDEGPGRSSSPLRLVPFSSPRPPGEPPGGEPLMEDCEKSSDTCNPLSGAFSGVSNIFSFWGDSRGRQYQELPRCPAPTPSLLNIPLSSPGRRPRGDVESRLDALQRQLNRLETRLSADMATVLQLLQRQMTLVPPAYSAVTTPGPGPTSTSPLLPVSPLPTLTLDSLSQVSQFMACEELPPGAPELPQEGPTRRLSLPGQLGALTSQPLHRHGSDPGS
Outline: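 Whole-cell patch clamp on an automated system using CHO cells stably expressing human hERG (IKr); 15 s pulse interval. Four increasing compound concentrations applied cumulatively; mean peak tail current from last 3 stimulations per concentration used. IC50 from inhibition versus pre-compound current, fitted by Hill equation.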

[5] = Test 4: metabolic stability test in human hepatic microsome; format: in vitro ADME; conditions: 0.1 mg/mL microsome, 0.1 μmol/L compound, 37° C., 30 minutes
Outline: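 LC-MS quantified remaining parent after 30 min, 37° C, in pH 7.4 25 mmol/L phosphate containing 0.1 mg/mL human hepatic microsomes, 3.2 mmol/L NADPH and 0.1 μmol/L test compound. Value given as −LN(residual ratio)/30/0.1, mL/min/mg protein.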

T1 sequence (P28223 whole entry): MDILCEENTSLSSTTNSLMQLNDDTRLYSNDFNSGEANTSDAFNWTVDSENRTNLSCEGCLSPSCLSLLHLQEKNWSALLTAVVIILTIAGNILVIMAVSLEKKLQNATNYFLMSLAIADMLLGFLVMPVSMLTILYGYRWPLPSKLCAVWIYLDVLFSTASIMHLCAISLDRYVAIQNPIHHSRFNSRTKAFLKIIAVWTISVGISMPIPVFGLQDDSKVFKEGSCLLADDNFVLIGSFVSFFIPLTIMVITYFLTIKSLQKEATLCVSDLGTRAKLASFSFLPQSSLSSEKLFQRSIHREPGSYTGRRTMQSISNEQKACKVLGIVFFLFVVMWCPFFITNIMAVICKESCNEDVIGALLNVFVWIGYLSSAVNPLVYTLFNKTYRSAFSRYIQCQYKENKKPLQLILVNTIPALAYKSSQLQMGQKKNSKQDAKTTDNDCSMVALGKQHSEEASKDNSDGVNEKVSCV

| Compound | Ki (human 5-HT2A receptor [1]) | Ki (human 5-HT1A receptor [2]) | Ki (human D2 receptor) | EC50 (human 5-HT1A receptor [3]) | IC50 (human 5-HT2A receptor [4]; aequorin luminescence) | IC50 (hERG channel) | Metabolic stability in human hepatic microsome [5] | Emax at 10 µM (human 5-HT1A receptor [3]) | IC50 (human 5-HT2A receptor [4]) | D2 Ki/5-HT1A Ki (human D2 receptor) | D2 Ki/5-HT2A Ki (human D2 receptor) | hERG inhibition IC50 (nmol/L)/5-HT1A Ki (nmol/L) (hERG channel; ratio of hERG IC50 to 5-HT1A Ki) | hERG inhibition IC50 (nmol/L)/5-HT2A Ki (nmol/L) (hERG channel; ratio of hERG IC50 to 5-HT2A Ki) | activity at 10 µM (human 5-HT2A receptor [4]; CHO-K1) |
| --- | --- | --- | --- | --- | --- | --- | --- | --- | --- | --- | --- | --- | --- | --- |
| Cc1cccc2c(C3CCN(CCN4CCc5cccnc5C4=O)CC3)noc12 [Example 120] | 91 nM | 340 nM | > 10000 nM | 630 nM | 912 nM | – | – | – | – | – | – | – | – | – |
| Cn1ncc2c1C(=O)N(CCN1CCN(c3nsc4ccccc34)CC1)CCC2 [Example 47] | 17.9 nM | 16.9 nM | – | 92.2 nM | – | 4000 nM | 0.418 mL/min/mg protein | 65% | 4.96 nM | – | – | – | – | – |
| Cc1noc2c1C(=O)N(CCN1CCN(c3noc4ccccc34)CC1)CC2 [Example 32, 5-{2-[4-(1,2-Benzoisoxazol-3-yl)piperazin-1-yl]ethyl}-3-methyl-6,7-dihydro[1,2]oxazolo[4,5-c]pyridin-4(5H)-one] | 60 nM | 124 nM | – | 644 nM | – | 5500 nM | <0.01 mL/min/mg protein | 39% | 95 nM | – | – | – | – | – |
| O=c1c2cccnc2ccn1CCN1CCN(c2nsc3ccccc23)CC1 [Example 10] | 0.49 nM | 20 nM | – | 119 nM | – | – | – | – | 0.71 nM | – | – | – | – | – |
| CC(C)c1ncc2c(n1)CCN(CCN1CCN(c3nsc4ccccc34)CC1)C2=O [Example 180] | 4.28 nM | 32.2 nM | 1560 nM | 1260 nM | 72.7 nM | – | 0.469 mL/min/mg protein | 37% | – | 48.3 | 363.5 | – | – | – |
| O=C1c2ncccc2CCC1CCN1CCC(c2noc3ccccc23)CC1 (centres unmarked) [Example 24] | 3.55 nM | 13.2 nM | – | 63.2 nM | – | 400 nM | 0.018 mL/min/mg protein | 31% | 33 nM | – | – | – | – | – |
| O=C1c2ncccc2CCN1CCN1CCN(c2noc3ccccc23)CC1 [Example 1, 7-{2-[4-(1,2-Benzoisoxazol-3-yl)piperazin-1-yl]ethyl}-6,7-dihydro-1,7-naphthyridin-8(5H)-one] | 49 nM | 21.5 nM | – | 94.7 nM | – | > 10000 nM | <0.01 mL/min/mg protein | 50% | 44.6 nM | – | – | – | – | – |
| COc1ccc2c(C3CCN(CCN4CCc5cccnc5C4=O)CC3)noc2c1 [Example 149] | 217 nM | 184 nM | > 10000 nM | 719 nM | 267 nM | – | – | 16% | – | >54.3 | >46.1 | – | – | – |
| Cc1ncc2c(=O)n(CCN3CCN(c4noc5ccccc45)CC3)ccc2n1 [Example 193, 6-{2-[4-(1,2-Benzoisoxazol-3-yl)piperazin-1-yl]ethyl}-2-methylpyrido[4,3-d]pyrimidin-5(6H)-one] | 122 nM | 387 nM | > 10000 nM | 756 nM | 143 nM | – | – | 27% | – | >25.8 | >81.7 | – | – | – |
| Cc1noc2c1C(=O)N(CCN1CCC(c3noc4ccccc34)CC1)CCC2 [Example 38] | 4.44 nM | 13.5 nM | – | 395 nM | – | 500 nM | 0.136 mL/min/mg protein | 56% | 24 nM | – | – | – | – | – |
| COc1ccc2onc(C3CCN(CCN4CCc5cccnc5C4=O)CC3)c2c1 [Example 142] | 164 nM | 1.83 nM | > 10000 nM | 8.8 nM | 3910 nM | – | – | 54% | – | >5452.0 | >61.0 | – | – | – |
| O=c1c2cncnc2ccn1CCN1CCC(c2noc3ccccc23)CC1 [Example 129] | 20 nM | 51.4 nM | – | 370 nM | 61.8 nM | – | 0.084 mL/min/mg protein | 31% | – | – | – | – | – | – |
| O=C1c2ncccc2CCN1CCN1CCC(c2noc3cccc(F)c23)CC1 [Example 141] | 173 nM | 4.16 nM | > 10000 nM | 30 nM | 976 nM | – | – | 44% | – | >2405.7 | >57.8 | – | – | – |
| Cn1cnc2c1CCCN(CCN1CCC(c3noc4ccccc34)CC1)C2=O [Example 101, 5-{2-[4-(1,2-Benzoisoxazol-3-yl)piperidin-1-yl]ethyl}-1-methyl-5,6,7,8-tetrahydroimidazo[4,5-c]azepin-4(1H)-one] | 1.9 nM | 60.1 nM | 1020 nM | 612 nM | – | 4100 nM | – | 47% | 46 nM | 17 | 538 | 68 | 2165 | – |
| O=C1c2cccnc2CCN1CCN1CCC(c2noc3cc(F)ccc23)CC1 [Example 121] | 105 nM | 60.9 nM | – | – | 57.4 nM | < 300 nM | <0.05 mL/min/mg protein | – | – | – | – | – | – | – |
| Cn1cnc2c1C(=O)N(CCN1CCN(c3nsc4ccccc34)CC1)CC2 [Example 56] | 0.11 nM | 78 nM | – | 66.6 nM | – | 7600 nM | 0.195 mL/min/mg protein | 58% | 6 nM | – | – | – | – | – |
| O=C1c2ncccc2CCN1CCN1CCC(c2noc3cc(F)c(F)cc23)CC1 [Example 148] | 43.2 nM | 156 nM | – | – | – | – | – | – | – | – | – | – | – | 45% |
| O=C1c2ncccc2CCN1CCN1CCN(c2noc3ccc(F)cc23)CC1 [Example 147] | 124 nM | 124 nM | > 10000 nM | 436 nM | 415 nM | – | – | – | – | – | – | – | – | – |
| O=c1c2cnc(C(F)(F)F)cc2ccn1CCN1CCN(c2noc3ccccc23)CC1 [Example 173] | 22.8 nM | 38.6 nM | > 10000 nM | 40.8 nM | 184 nM | – | – | 50% | – | >259.1 | >438.0 | – | – | – |
| O=c1c2cccnc2ccn1CCN1CCN(c2noc3ccccc23)CC1 [Example 115] | 1.07 nM | – | > 10000 nM | – | 4.28 nM | 5000 nM | <0.05 mL/min/mg protein | 37% | – | – | – | – | – | – |
| O=C1c2ncccc2CCN1CCN1CCC(c2noc3ccccc23)CC1 [Example 22, 7-{2-[4-(1,2-Benzoisoxazol-3-yl)piperidin-1-yl]ethyl}-6,7-dihydro-1,7-naphthyridin-8(5H)-one] | 4.4 nM | – | 2600 nM | – | – | 1900 nM | 0.039 mL/min/mg protein | 52% | 94 nM | – | – | – | – | – |
| O=C1c2ncccc2CCN1CCN1CCC(c2noc3c(F)cccc23)CC1 [Example 140] | 118 nM | 168 nM | > 10000 nM | 2300 nM | 373 nM | – | – | 27% | – | >59.5 | >84.7 | – | – | – |
| Cn1cc2c(n1)CCN(CCN1CCC(c3noc4ccccc34)C1)C2=O (centres unmarked) [Example 174] | 71.7 nM | 78.1 nM | > 10000 nM | 193 nM | 723 nM | – | – | 50% | – | >128.0 | >139.5 | – | – | – |
